# Results as given in patent publication US20230210999A1, “TARGETED PROTEASE DEGRADATION (TED) PLATFORM” (EUBULUS BIOTHERAPEUTICS INC., priority 2020, published 2023).
# pIC50: −log10 of the molar value.
# Key:
# HL-60 cells = test: Cell proliferation experiment, HL-60; type: cell-based; settings: Homo sapiens, 72 h, read-out: Inhibitory activity IC50 of tested compounds on HL-60 cells
# Protocol: (§1) Reagents: RPMI-1640 medium, McCoy's 5A medium, IMDM medium, MEM medium, L-15 medium, fetal bovine serum. Penicillin-Streptomycin double antibody, trypsin, etc., 2-mercaptoethanol, NEAA, pyruvate, etc.
# (§2) The cells were cultured in conventional ways, and the cells should be passed at least 2 generations before plating. Cells at the logarithmic growth phase were collected, prepared into single cell suspensions and counted. The concentration of cells was adjusted to the desired concentration, and cells were inoculated into a 96-well cell culture plate at 100 μl per well. 100 μL of complete medium of the test compound were added to each well, set up 2 duplicate wells for each concentration, and diluted with a 5-fold gradient, and continued to culture for 72 h. All cells were subjected to IC50 test for corresponding samples. The experimental results are shown in Test Example 4.
# (§3) The fluorescence intensity of each well was detected using the Alarm blue method, and IC50 was calculated.
# (§4) IC50 was calculated according to the following formula:
# (§5) Y=Max+(Min−Max)/[1+(X/IC50)×Slope]
# (§6) wherein Min, Max and Slope represent the minimum, maximum and slope respectively.
# Daudi cells = test: Cell proliferation experiment, Daudi; type: cell-based, human; settings: Homo sapiens, Daudi, 72 h, Daudi cells, 72 h; read-out: Inhibitory activity IC50 of tested compounds on Daudi cells
# In short: (§7)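 Single-cell suspensions from log-phase cultures, passaged at least 2 generations, are seeded into 96-well plates and given compound in complete medium. Following 72 h, fluorescence with Alamar blue is recorded and fitted for IC50.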
# NCIH82 cells = test: Cell proliferation experiment, NCI-H82; type: cell-based, human; settings: Homo sapiens, NCI-H82, 72 h, NCIH82 cells, 72 h; read-out: Inhibitory activity IC50 of tested compounds on NCIH82 cells
# In short: as §7
# MV4;11 cells = test: Cell proliferation experiment (Alamar blue, 72 h), MV4;11; type: cell-based, human; settings: Homo sapiens, MV4-11, 72 h, MV4;11 cells, 72 h; read-out: Inhibitory activity IC50 of tested compounds on MV4;11 cells
# In short: as §7
# HT-29 cells = test: Cell proliferation experiment, HT-29; type: cell-based; settings: Homo sapiens; HT-29 cells, 72 h; read-out: Inhibitory activity IC50 of tested compounds on HT-29 cells
# In short: as §7
# U-87MG cells = test: Cell proliferation experiment, U-87MG; type: cell-based; settings: Homo sapiens; U-87MG cells, 72 h; read-out: Inhibitory activity IC50 of tested compounds on U-87MG cells
# In short: as §7
# THP-1 cells = test: Cell proliferation experiment, THP-1; type: cell-based; settings: Homo sapiens, 72 h, read-out: Inhibitory activity IC50 of tested compounds on THP-1 cells
# Protocol: as §1, §2, §3, §4, §5, §6
# HUVEC cells = test: Cell proliferation experiment, HUVEC; type: cell-based; settings: Homo sapiens, 72 h, read-out: Inhibitory activity IC50 of tested compounds on HUVEC cells
# Protocol: as §1, §2, §3, §4, §5, §6
# MDA-MB-231 cells = test: Cell proliferation experiment, MDA-MB-231; type: cell-based, human; settings: Homo sapiens, MDA-MB-231, 72 h, MDA-MB-231 cells, 72 h; read-out: Inhibitory activity IC50 of tested compounds on MDA-MB-231 cells
# In short: as §7
# Hela cells = test: Cell proliferation experiment, Hela; type: cell-based; settings: Homo sapiens, 72 h, read-out: Inhibitory activity IC50 of tested compounds on Hela cells
# Protocol: as §1, §2, §3, §4, §5, §6
SMILES,pIC50 (HL-60 cells),pIC50 (Daudi cells),pIC50 (NCIH82 cells),pIC50 (MV4;11 cells),pIC50 (HT-29 cells),pIC50 (U-87MG cells),pIC50 (THP-1 cells),pIC50 (HUVEC cells),pIC50 (MDA-MB-231 cells),pIC50 (Hela cells)
CC[C@@H]1C(=O)N(C)c2cnc(Nc3ccc(C(=O)NC4CCN(CCOCCNCCC#Cc5cccc6c5CN(C5CCC(=O)NC5=O)C6=O)CC4)cc3OC)nc2N1C1CCCC1 (stereo partly shown) [Compound 874],≥ 6.00,6.00 to 7.00,≥ 6.00,≥ 7.00,6.00 to 6.52,6.30 to 7.00,≥ 6.00,,,
CC[C@@H]1C(=O)N(C)c2cnc(Nc3ccc(C(=O)NCCCOCCOCCNCCC#Cc4cccc5c4CN(C4CCC(=O)NC4=O)C5=O)cc3OC)nc2N1C1CCCC1 (stereo partly shown) [Compound 890],≥ 6.00,≥ 7.00,≥ 6.00,≥ 7.00,6.00 to 6.52,6.30 to 7.00,,≥ 6.00,≥ 6.30,
CC[C@@H]1C(=O)N(C)c2cnc(Nc3ccc(C(=O)NCCC#Cc4cccc5c4CN(C4CCC(=O)NC4=O)C5=O)cc3OC)nc2N1C1CCCC1 (stereo partly shown) [Compound 891],≥ 6.00,,≥ 6.00,6.00 to 7.00,6.00 to 6.52,6.30 to 7.00,,,,
CC[C@@H]1C(=O)N(C)c2cnc(Nc3ccc(C(=O)NCCCOCCCOCCNCCC#Cc4cccc5c4CN(C4CCC(=O)NC4=O)C5=O)cc3OC)nc2N1C1CCCC1 (stereo partly shown) [Compound 892],≥ 6.00,6.00 to 7.00,≥ 6.00,≥ 7.00,6.00 to 6.52,≥ 7.00,,≥ 6.00,≥ 6.30,≥ 6.00
CC[C@@H]1C(=O)N(C)c2cnc(Nc3ccc(C(=O)NCCCOCCNCCOCCC#Cc4cccc5c4CN(C4CCC(=O)NC4=O)C5=O)cc3OC)nc2N1C1CCCC1 (stereo partly shown) [Compound 893],≥ 6.00,≥ 7.00,≥ 6.00,≥ 7.00,≥ 6.52,≥ 7.00,,≥ 6.00,≥ 6.30,≥ 6.00
CC[C@@H]1C(=O)N(C)c2cnc(Nc3ccc(C(=O)NC4CCN(CCCOCCNCCC#Cc5cccc6c5CN(C5CCC(=O)NC5=O)C6=O)CC4)cc3OC)nc2N1C1CCCC1 (stereo partly shown) [Compound 895],≥ 6.00,6.00 to 7.00,≥ 6.00,≥ 7.00,6.00 to 6.52,6.30 to 7.00,,,,
CC[C@@H]1C(=O)N(C)c2cnc(Nc3ccc(C(=O)NC4CCN(CCCOCCN(C)CCC#Cc5cccc6c5CN(C5CCC(=O)NC5=O)C6=O)CC4)cc3OC)nc2N1C1CCCC1 (stereo partly shown) [Compound 897],≥ 6.00,6.00 to 7.00,≥ 6.00,≥ 7.00,≥ 6.52,6.30 to 7.00,,,,
CC[C@@H]1C(=O)N(C)c2cnc(Nc3ccc(C(=O)NC4CCN(CCNCCCOCCCC#Cc5cccc6c5CN(C5CCC(=O)NC5=O)C6=O)CC4)cc3OC)nc2N1C1CCCC1 (stereo partly shown) [Compound 899],≥ 6.00,≥ 7.00,≥ 6.00,≥ 7.00,≥ 6.52,≥ 7.00,,,,
CC[C@@H]1C(=O)N(C)c2cnc(Nc3ccc(C(=O)NC4CCN(CCN(C)CCCOCCCC#Cc5cccc6c5CN(C5CCC(=O)NC5=O)C6=O)CC4)cc3OC)nc2N1C1CCCC1 (stereo partly shown) [Compound 900],≥ 6.00,≥ 7.00,≥ 6.00,≥ 7.00,≥ 6.52,≥ 7.00,,,,
CC[C@@H]1C(=O)N(C)c2cnc(Nc3ccc(C(=O)NC4CCN(CCCNCCCOCCCC#Cc5cccc6c5CN(C5CCC(=O)NC5=O)C6=O)CC4)cc3OC)nc2N1C1CCCC1 (stereo partly shown) [Compound 901],≥ 6.00,,≥ 6.00,≥ 7.00,6.00 to 6.52,6.30 to 7.00,,,,
CC[C@@H]1C(=O)N(C)c2cnc(Nc3ccc(C(=O)NC4CCN(CCOCCCC#Cc5cccc6c5CN(C5CCC(=O)NC5=O)C6=O)CC4)cc3OC)nc2N1C1CCCC1 (stereo partly shown) [Compound 902],≥ 6.00,≥ 7.00,≥ 6.00,,≥ 6.52,≥ 7.00,,,,
CC[C@@H]1C(=O)N(C)c2cnc(Nc3ccc(C(=O)NC4CCN(CCNCCCOCCC#Cc5cccc6c5CN(C5CCC(=O)NC5=O)C6=O)CC4)cc3OC)nc2N1C1CCCC1 (stereo partly shown) [Compound 903],≥ 6.00,≥ 7.00,≥ 6.00,≥ 7.00,6.00 to 6.52,≥ 7.00,,,,
CC[C@@H]1C(=O)N(C)c2cnc(Nc3ccc(C(=O)NC4CCN(CCCNCCCOCCC#Cc5cccc6c5CN(C5CCC(=O)NC5=O)C6=O)CC4)cc3OC)nc2N1C1CCCC1 (stereo partly shown) [Compound 904],≥ 6.00,,< 6.00,≥ 7.00,< 6.00,6.00 to 6.30,,,,
CC[C@@H]1C(=O)N(C)c2cnc(Nc3ccc(C(=O)NC4CCN(CCCNCCOCCC#Cc5cccc6c5CN(C5CCC(=O)NC5=O)C6=O)CC4)cc3OC)nc2N1C1CCCC1 (stereo partly shown) [Compound 905],≥ 6.00,,< 6.00,≥ 7.00,< 6.00,6.30 to 7.00,,,,
CC[C@@H]1C(=O)N(C)c2cnc(Nc3ccc(C(=O)NCCCOCCN(C)CCC#Cc4cccc5c4CN(C4CCC(=O)NC4=O)C5=O)cc3OC)nc2N1C1CCCC1 (stereo partly shown) [Compound 927],,≥ 7.00,≥ 6.00,≥ 7.00,≥ 6.52,≥ 7.00,,≥ 6.00,,
CC[C@@H]1C(=O)N(C)c2cnc(Nc3ccc(C(=O)NC4CCN(C5CN(CCC#Cc6cccc7c6CN(C6CCC(=O)NC6=O)C7=O)C5)CC4)cc3OC)nc2N1C1CCCC1 (stereo partly shown) [Compound 928],,≥ 7.00,≥ 6.00,≥ 7.00,≥ 6.52,≥ 7.00,,≥ 6.00,,
CC[C@@H]1C(=O)N(C)c2cnc(Nc3ccc(C(=O)NCCCOCCCOCCN(C)CCC#Cc4cccc5c4CN(C4CCC(=O)NC4=O)C5=O)cc3OC)nc2N1C1CCCC1 (stereo partly shown) [Compound 930],,≥ 7.00,≥ 6.00,≥ 7.00,≥ 6.52,≥ 7.00,,≥ 6.00,,
CC[C@@H]1C(=O)N(C)c2cnc(Nc3ccc(C(=O)NC4CCN(CCN(C)CCCOCCC#Cc5cccc6c5CN(C5CCC(=O)NC5=O)C6=O)CC4)cc3OC)nc2N1C1CCCC1 (stereo partly shown) [Compound 932],,≥ 7.00,≥ 6.00,≥ 7.00,≥ 6.52,≥ 7.00,,≥ 6.00,,
CC[C@@H]1C(=O)N(C)c2cnc(Nc3ccc(C(=O)NC4CCC(N5CCN(CCCNCCC#Cc6cccc7c6CN(C6CCC(=O)NC6=O)C7=O)CC5)CC4)cc3OC)nc2N1C1CCCC1 (stereo partly shown) [Compound 933],,6.00 to 7.00,≥ 6.00,≥ 7.00,6.00 to 6.52,6.30 to 7.00,,≥ 6.00,,
